Several values for one entry are separate records, joined by “and”; a condition that tells them apart may be missing. Identical values can stand only once.
Test system: SK-HEP-1 cells
Assay: Protection of endothelial cells from homocysteine-induced cell death (MTS assay)
Type: cell-based, human
Conditions: for Absorbance at 490 nm: single replicates Y1-Y6
[1] = Conc. Hcy 0.000, NACCbl 30 μM, NAC 75 μM, n = 6
[2] = Conc. Hcy 1.780, NACCbl 30 μM, NAC 75 μM, n = 6
[3] = Conc. Hcy 3.125, NACCbl 30 μM, NAC 75 μM, n = 6
[4] = Conc. Hcy 6.250, NACCbl 30 μM, NAC 75 μM, n = 6
[5] = Conc. Hcy 12.500, NACCbl 30 μM, NAC 75 μM, n = 6
[6] = Conc. Hcy 25.000, NACCbl 30 μM, NAC 75 μM, n = 6
[7] = Conc. Hcy 50.000, NACCbl 30 μM, NAC 75 μM, n = 6
[8] = Conc. Hcy 100.000, NACCbl 30 μM, NAC 75 μM, n = 6
[9] = Conc. Hcy 200.000, NACCbl 30 μM, NAC 75 μM, n = 6

CC(=O)NC(C[S-])C(=O)O.CC1=C2N=C(C=C3N=C(C(C)=C4[N-]C(C(CC(N)=O)C4(C)CCC(=O)NCC(C)OP(=O)([O-])OC4C(CO)OC(n5cnc6cc(C)c(C)cc65)C4O)C4(C)N=C1C(CCC(N)=O)C4(C)CC(N)=O)C(CCC(N)=O)C3(C)C)C(CCC(N)=O)C2(C)CC(N)=O.[Co+3] [NACCbl, N-acetyl-L-cysteinylcobalamin]
Pre-incubation concentration that protected cells from homocysteine-induced cell death (2 hours, then 30 μM homocysteine 24 hours): ≥ 2.0 µM
Normalized Data Log 2, Mean [1]: 94.824
Normalized Data Log 10, Mean [1]: 100.000
Normalized Data Log 2, Mean [2]: 91.341
Normalized Data Log 10, Mean [2]: 96.489
Normalized Data Log 2, Mean [3]: 80.699
Normalized Data Log 10, Mean [3]: 85.763
Normalized Data Log 2, Mean [4]: 75.524
Normalized Data Log 10, Mean [4]: 80.546
Normalized Data Log 2, Mean [5]: 70.387
Normalized Data Log 10, Mean [5]: 75.368
Normalized Data Log 2, Mean [6]: 62.926
Normalized Data Log 10, Mean [6]: 67.848
Normalized Data Log 2, Mean [7]: 56.302
Normalized Data Log 10, Mean [7]: 61.171
Normalized Data Log 2, Mean [8]: 52.298
Normalized Data Log 10, Mean [8]: 57.135
Normalized Data Log 2, Mean [9]: 40.781
Normalized Data Log 10, Mean [9]: 45.526
Absorbance at 490 nm (Conc. of Hcy 0.000, NACCbl 30 μM, NAC 75 μM): 2.885 and 2.698 and 2.821 and 2.771 and 2.691 and 2.700
Absorbance at 490 nm (Conc. of Hcy 1.780, NACCbl 30 μM, NAC 75 μM): 2.647 and 2.551 and 2.789 and 2.890 and 2.549 and 2.611
Absorbance at 490 nm (Conc. of Hcy 3.125, NACCbl 30 μM): 2.453 and 2.338 and 2.360 and 2.317 and 2.418 and 2.535
Absorbance at 490 nm (Conc. of Hcy 6.250, NACCbl 30 μM, NAC 75 μM): 2.410 and 2.400 and 2.322 and 2.201 and 2.115 and 2.187
Absorbance at 490 nm (Conc. of Hcy 12.500, NACCbl 30 μM, NAC 75 μM): 2.210 and 2.110 and 2.045 and 2.065 and 2.101 and 2.324
Absorbance at 490 nm (Conc. of Hcy 25.000, NACCbl 30 μM, NAC 75 μM): 2.100 and 2.190 and 1.879 and 1.937 and 1.779 and 1.837
Absorbance at 490 nm (Conc. of Hcy 50.000, NACCbl 30 μM, NAC 75 μM): 1.678 and 1.832 and 1.881 and 1.730 and 1.740 and 1.855
Absorbance at 490 nm (Conc. of Hcy 100.000, NACCbl 30 μM, NAC 75 μM): 1.678 and 1.592 and 1.694 and 1.773 and 1.732 and 1.639
Absorbance at 490 nm (Conc. of Hcy 200.000, NACCbl 30 μM, NAC 75 μM): 1.378 and 1.167 and 1.330 and 1.456 and 1.491 and 1.537
Protection against homocysteine-induced damage compared with free thiols (Hcy 30 μM, NAC 45 μM, GSH 100 μM, NACCbl 12.5 μM, GSCbl 15 μM): superior to the free thiols
Prevention of cell death compared with NAC and cyanocobalamin + NAC (NACCbl 30 μM, variable Hcy): superior to either NAC (75 μM) alone or in combination with CNCbl
Absorbance at 490 nm, Mean (SK-HEP-1, NACCbl 30 μM, NAC 75 μM, Hcy conc. 200.000, n = 6, label Hcy = Hcy alone): 1.393
Mean (FIG. 14, protection of SK-HEP-1 cells from Hcy) ([Hcy] 30 μM, [NAC] = 45 μM, [NACCbl] = 12.5 μM, [Folate] = 25 μM where named in the label, label Hcy/HCy = Hcy alone): 1.696
Mean (FIG. 14a, protection of SK-HEP-1 cells from Hcy in the presence of folate) ([Hcy] 30 μM, folate 25 μM present, [GSCbl] = 15 μM, [NACCbl] = 12.5 μM, [CNCbl] = 15 μM, [MeCbl] = 12.5 μM, [HOCbl] = 17.5 μM, [NAC] = 45 μM, [GSH] = 100 μM): 2.661
Absorbance at 490 nm, Mean (as E80, Hcy conc. 0.000): 2.761
Absorbance at 490 nm, Mean (as E80, Hcy conc. 1.780): 2.673
Absorbance at 490 nm, Mean (as E80, Hcy conc. 3.125): 2.404
Absorbance at 490 nm, Mean (as E80, Hcy conc. 6.250): 2.273
Absorbance at 490 nm, Mean (as E80, Hcy conc. 12.500): 2.142
Absorbance at 490 nm, Mean (as E80, Hcy conc. 25.000): 1.954
Absorbance at 490 nm, Mean (as E80, Hcy conc. 50.000): 1.786
Absorbance at 490 nm, Mean (as E80, Hcy conc. 100.000): 1.685
Survival (compound 30 μM, 50 μM homocysteine): ~60%
Protection compared with GSCbl (concentrations below 12.5 μM, 30 μM homocysteine, p<0.001): significantly greater than that provided by GSCbl
